Test results published in ChEMBL document CHEMBL4043086, “Facile access to pseudo-thio-1,2-dimannoside, a new glycomimetic DC-SIGN antagonist” (Bioorg Med Chem, 2017).

The molecules below were run against T1, CD209 antigen (Homo sapiens, UniProt Q9NNX6) (assay: Inhibition of binding of immobilized mannosylated BSA to DC-SIGN extracellular domain (66 to 404 residues) (unknown origin) expressed in Escherichia coli by SPR assay).
T1 sequence (Q9NNX6 whole entry): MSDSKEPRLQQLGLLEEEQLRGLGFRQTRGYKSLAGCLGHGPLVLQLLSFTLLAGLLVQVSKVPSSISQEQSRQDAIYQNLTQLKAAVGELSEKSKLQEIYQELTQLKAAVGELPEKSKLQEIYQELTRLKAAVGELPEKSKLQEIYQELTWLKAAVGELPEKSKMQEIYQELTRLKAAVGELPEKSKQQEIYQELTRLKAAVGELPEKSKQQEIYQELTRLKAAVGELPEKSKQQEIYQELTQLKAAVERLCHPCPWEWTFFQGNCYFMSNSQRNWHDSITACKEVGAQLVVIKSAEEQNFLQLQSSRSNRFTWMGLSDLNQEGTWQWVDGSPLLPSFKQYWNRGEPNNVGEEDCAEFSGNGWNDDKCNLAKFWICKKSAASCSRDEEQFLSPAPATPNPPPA

Q: Which IC50 does the source give for COC(=O)[C@H]1C[C@H](OC(=O)C(C)(C)C)[C@@H](S[C@H]2O[C@H](CO)[C@@H](O)[C@H](O)[C@@H]2O)C[C@@H]1C(=O)OC here?
A: The IC50 was 776 µM.

Q: COC(=O)[C@H]1C[C@H](OC)[C@@H](S[C@H]2O[C@H](CO)[C@@H](O)[C@H](O)[C@@H]2O)C[C@@H]1C(=O)OC was tested. Which IC50 did it give?
A: The IC50 was 776 µM.

Q: With COC(=O)[C@H]1C[C@H](OC)[C@@H](O[C@H]2O[C@H](CO)[C@@H](O)[C@H](O)[C@@H]2O)C[C@@H]1C(=O)OC as the molecule, how does the IC50 read?
A: The IC50 was 720 µM.
